“Also recorded” adds a separate entry of the source.
How the values were obtained:
[1] = system: D2-DISC1 interaction; assay: Apomorphine-induced disruption of pre-pulse inhibition (PPI) of the acoustic startle reflex in rats; assay type: in vivo, rat; settings: rats
From the text: PPI of the acoustic startle reflex is a sensorimotor gating process known to be deficient in a number of neurologic and psychiatric conditions including, but not limited to schizophrenia, Huntington's disease, Tourette's syndrome, and obsessive compulsive disorder (OCD).

[2] = system: D2-DISC1 interaction; assay: Co-immunoprecipitation of D2-DISC1 after ICV administration of peptide; assay type: in vivo, rat; settings: administered via ICV; data not shown
From the text: PPI of the acoustic startle reflex is a sensorimotor gating process known to be deficient in a number of neurologic and psychiatric conditions including, but not limited to schizophrenia, Huntington's disease, Tourette's syndrome, and obsessive compulsive disorder (OCD). PPI can be disrupted by the dopamine DI/D2R agonist apomorphine in rats (111). […] Accordingly, if D2-DISC1 interaction plays an important role in the D2R-mediated reduction of phosphorylation of GSK-3α/β, disruption of the D2R-DISC1 interaction should reverse D2R-associated behaviours such as PPI deficit. […] These effects could not be explained in terms of altered startle reactivity (data not shown). The ability of the TAT-D2pep (administered via ICV) to disrupt the D2-DISC1 interaction was confirmed in co-immunoprecipitation experiments (data not shown).

Chain of D2-DISC1 interaction (P61169 whole entry): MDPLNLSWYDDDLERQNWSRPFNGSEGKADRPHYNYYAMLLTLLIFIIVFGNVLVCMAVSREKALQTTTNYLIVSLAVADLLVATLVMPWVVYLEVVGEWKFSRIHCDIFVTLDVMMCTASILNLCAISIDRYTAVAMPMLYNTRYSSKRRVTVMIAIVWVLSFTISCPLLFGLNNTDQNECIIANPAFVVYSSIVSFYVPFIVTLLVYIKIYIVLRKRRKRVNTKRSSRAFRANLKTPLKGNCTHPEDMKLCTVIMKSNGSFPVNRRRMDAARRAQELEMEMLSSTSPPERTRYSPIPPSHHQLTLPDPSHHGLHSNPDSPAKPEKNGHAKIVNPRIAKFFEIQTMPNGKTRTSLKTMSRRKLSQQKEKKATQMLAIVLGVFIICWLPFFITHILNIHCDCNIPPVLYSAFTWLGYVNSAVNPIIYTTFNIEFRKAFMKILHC
Chain of D2-DISC1 interaction (Q810H6 whole entry, further chain): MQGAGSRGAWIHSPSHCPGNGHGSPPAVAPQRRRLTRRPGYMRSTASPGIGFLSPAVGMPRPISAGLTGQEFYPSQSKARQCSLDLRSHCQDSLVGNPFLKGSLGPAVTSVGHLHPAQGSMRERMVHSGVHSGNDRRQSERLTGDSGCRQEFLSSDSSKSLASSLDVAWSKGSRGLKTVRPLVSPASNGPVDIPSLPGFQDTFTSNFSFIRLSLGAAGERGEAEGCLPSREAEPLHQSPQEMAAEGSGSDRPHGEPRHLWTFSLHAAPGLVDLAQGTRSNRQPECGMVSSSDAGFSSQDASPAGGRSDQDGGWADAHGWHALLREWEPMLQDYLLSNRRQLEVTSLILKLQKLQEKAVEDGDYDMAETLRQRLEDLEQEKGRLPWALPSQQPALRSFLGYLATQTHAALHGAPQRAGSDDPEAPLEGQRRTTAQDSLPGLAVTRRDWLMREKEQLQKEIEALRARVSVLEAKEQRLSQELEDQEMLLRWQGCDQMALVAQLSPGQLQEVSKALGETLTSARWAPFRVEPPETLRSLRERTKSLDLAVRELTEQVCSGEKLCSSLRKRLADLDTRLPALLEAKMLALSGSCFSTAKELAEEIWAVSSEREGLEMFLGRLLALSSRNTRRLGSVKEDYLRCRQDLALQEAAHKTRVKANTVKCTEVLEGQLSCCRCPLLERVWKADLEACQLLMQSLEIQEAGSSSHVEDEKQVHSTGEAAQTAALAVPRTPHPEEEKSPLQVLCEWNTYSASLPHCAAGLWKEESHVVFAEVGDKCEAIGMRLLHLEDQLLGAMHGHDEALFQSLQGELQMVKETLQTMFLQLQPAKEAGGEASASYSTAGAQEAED

In the case of “TAT-D2pep: TAT-D2 pep [K211-T225]: YGRKKRRQRRRKIYIVLRRRRKRVNT (SEQ ID NO:2) (TAT-[K211-T225]D2R fusion protein)”, the “Effect on apomorphine-induced disruption of PPI” value ([1]; apomorphine 0.3 mg/kg SC, peptide ICV (1 mM, 4 μl; 40 nmol), n=5 per group) is reported as “completely reversed the effects of apomorphine; also recorded: significantly reversed the disruption of PPI”, the “Effect on basal PPI (degree of PPI without apomorphine)” value ([1]; peptide ICV) is reported as “without altering the degree of PPI” and the “Ability to disrupt the D2-DISC1 interaction (co-immunoprecipitation)” value [2] is reported as “confirmed”.
